The text below walks through data of US8791123B2, “Substituted pyrazolo[1,5-a]pyrimidine compounds as Trk kinase inhibitors” (Array Biopharma, Inc., priority 2009, dated 2014).

A word on the IC50: it is the concentration at which inhibition is half-maximal.

Molecules are shown by their SMILES. Like-named read-outs stand apart in the source and are kept apart here.

Test [1] addresses TrkA (histidine-tagged recombinant human TrkA, cytoplasmic domain) (Homo sapiens (Human), UniProt P04629). The experiment in a line: TrkA ELISA Assay. The note with it: Table 1; ELISA, 500 μM ATP; read-out: TrkA Enzyme IC50. In kind it is biochemical. As for the experimental part:
An enzyme-linked immunosorbant assay (ELISA) was used to assess TrkA kinase activity in the presence of inhibitors. Immulon 4HBX 384-well microtiter plates (Thermo part #8755) were coated with a 0.025 mg/mL solution of poly (Glu, Ala, Tyr; 6:3:1; Sigma P3899). […] The reaction mixture was removed from the plate by washing with PBS containing 0.1% (v/v) Tween 20. The phosphorylated reaction product was detected using 0.2 μg/mL of a phosphotyrosine specific monoclonal antibody (clone PY20) conjugated to horseradish peroxidase in conjunction with the TMB Peroxidase Substrate System (KPL). After the addition of 1M phosphoric acid, the chromogenic substrate color intensity was quantitated via absorbance at 450 nm.
In general terms: An ELISA detects its analyte on a solid surface through an enzyme-linked reagent.

The next test addresses Human Jak2 kinase domain (Homo sapiens (Human), UniProt O60674). The experiment in a line: Jak2 Inhibition Assay (Omnia kinase assay). It counts as biochemical. The following applies: read-out: Jak2 Enzyme IC50. As for the experimental part:
The assays described in Examples C, D, E and F for the determination of JAK1, JAK2, JAK3 and Tyk2 kinase activity, respectively, utilized the Omnia® Kinase fluorescence peptide substrate-based technology (Invitrogen). […] The reactions were therefore read at excitation 360 nm and emission was measured at 485 nm every 50 seconds for 45 minutes using a PerkinElmer EnVision Multilabel Plate Reader.
The final buffer conditions for each of the JAK1, JAK2, JAK3 and Tyk2 assays were as follows: 25 mM HEPES, pH 7.4, 10 mM MgCl2, 0.01% Triton X-100 and 1 mM DTT.
Two-μL aliquots of these were transferred to a fresh plate for a ten-fold intermediate dilution with assay buffer. Five-μL aliquots of the diluted compounds were then transferred to 20-μL of assay mixtures described in Examples C, D, E and F for a final concentration of DMSO of 2%. […] For each plate, percent of control (POC) values were calculated for each well according to the following equation:
[formula] • where • Xmax=Average Uninhibited Controls • Xmin=Average Background IC50's were estimated from the POC's using a standard 4-parameter logistic model:
[formula] • where • A=Minimum Y (Bottom Asymptote) • B=Maximum Y (Top Asymptote) • C=EC50 • D=Slope Factor • X=Compound Concentration (nM) • Y=POC
The IC50 is defined as the concentration of inhibitor at which the POC equals 50 for the fitted curve.
Compounds of Formula I were screened for their ability to inhibit Jak2 using the general enzyme inhibition assay method, in which the assay mixture contained 500 μM ATP, 10 μM Omnia® Y7 peptide (Catalog # IVGN KNZ3071C, Invitrogen Corporation, Carlsbad, Calif.) and 4 nM Jak2 in a total volume of 20 μL. Human Jak2 kinase domain comprising amino acids 808-1132 was purchased from Invitrogen Corporation, Carlsbad, Calif. (catalog # IVGN PV4210).

Where [2] appears, read: Table 1, 500 μM ATP, >1000 nM when >50% inhibition not observed at 1000 nM.

Sequence of Human Jak2 kinase domain (O60674 808-1132): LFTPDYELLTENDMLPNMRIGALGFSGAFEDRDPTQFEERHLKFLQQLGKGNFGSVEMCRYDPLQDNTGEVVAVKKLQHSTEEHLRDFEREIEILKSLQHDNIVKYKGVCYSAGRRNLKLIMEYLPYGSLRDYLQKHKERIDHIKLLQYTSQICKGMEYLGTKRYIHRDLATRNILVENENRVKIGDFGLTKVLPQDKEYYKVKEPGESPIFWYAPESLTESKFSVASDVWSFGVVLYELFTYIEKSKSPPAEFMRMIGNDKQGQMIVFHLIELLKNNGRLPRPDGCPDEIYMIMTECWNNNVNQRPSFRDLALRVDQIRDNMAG
Sequence of TrkA (histidine-tagged recombinant human TrkA, cytoplasmic domain) (P04629 440-796): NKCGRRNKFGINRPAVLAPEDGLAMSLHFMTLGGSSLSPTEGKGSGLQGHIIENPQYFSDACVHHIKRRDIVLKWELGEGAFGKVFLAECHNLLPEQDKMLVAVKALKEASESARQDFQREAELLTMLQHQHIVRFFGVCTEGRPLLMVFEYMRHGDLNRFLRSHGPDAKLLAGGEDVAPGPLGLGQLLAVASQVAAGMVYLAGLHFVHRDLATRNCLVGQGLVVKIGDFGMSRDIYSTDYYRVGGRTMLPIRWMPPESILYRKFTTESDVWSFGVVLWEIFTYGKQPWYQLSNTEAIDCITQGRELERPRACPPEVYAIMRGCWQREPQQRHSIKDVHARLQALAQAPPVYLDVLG

Regarding `COCC(O)CNC(=O)c1cnn2ccc(N3CCCC3c3cncc(F)c3)nc12` [Example 119, 5-((R)-2-(5-fluoropyridin-3-yl)pyrrolidin-1-yl)-N-(2-hydroxy-3-methoxypropyl)pyrazolo[1,5-a]pyrimidine-3-carboxamide], the IC50 in test [1] is 131 nM; on Human Jak2 kinase domain (setting [2]), above 1000 nM.
The matching figures for `O=C(NC1CC1)c1cnn2ccc(N3CCC[C@@H]3c3cc(F)cc(OCCN4CCOCC4)c3)nc12` [Example 85, (R)—N-cyclopropyl-5-(2-(3-fluoro-5-(2-morpholinoethoxy)phenyl)pyrrolidin-1-yl)pyrazolo[1,5-a]pyrimidine-3-carboxamide]: 9.38 nM and above 1000 nM.
For `C[C@@H](NC(=O)c1cnn2ccc(N3CCC[C@@H]3c3cncc(F)c3)nc12)C(F)(F)F` [Example 129, 5-((R)-2-(5-fluoropyridin-3-yl)pyrrolidin-1-yl)-N-((R)-1,1,1-trifluoropropan-2-yl)pyrazolo[1,5-a]pyrimidine-3-carboxamide], the IC50 in test [1] is 8 nM; at Human Jak2 kinase domain (setting [2]) it was above 1000 nM.
The like results for `COc1ncc(F)cc1[C@H]1CCCN1c1ccn2ncc(C(=O)N[C@H]3CC[C@H](O)C3)c2n1` [Example 154, 5-((R)-2-(5-fluoro-2-methoxypyridin-3-yl)pyrrolidin-1-yl)-N-((1S,3S)-3-hydroxycyclopentyl)pyrazolo[1,5-a]pyrimidine-3-carboxamide] were, in that order, 1.3 nM and 524 nM.
The like results for `O=C(NCCn1ccnc1)c1cnn2ccc(N3CCC[C@@H]3c3cc(F)ccc3F)nc12` [Example 28, (R)—N-(2-(1H-imidazol-1-yl)ethyl)-5-(2-(2,5-difluorophenyl)pyrrolidin-1-yl)pyrazolo[1,5-a]pyrimidine-3-carboxamide] were, in that order, 2.8 nM and above 1000 nM.
The matching figures for `CONC(=O)c1cnn2ccc(N3CCC[C@@H]3c3cncc(F)c3)nc12` [Example 73, (R)-5-(2-(5-fluoropyridin-3-yl)pyrrolidin-1-yl)-N-methoxypyrazolo[1,5-a]pyrimidine-3-carboxamide]: 48.5 nM and above 1000 nM.
As for `C[C@H](O)[C@@H](CO)NC(=O)c1cnn2ccc(N3CCC[C@@H]3c3cc(F)ccc3F)nc12` [Example 176, 5-((R)-2-(2,5-difluorophenyl)pyrrolidin-1-yl)-N-((2R,3S)-1,3-dihydroxybutan-2-yl)pyrazolo[1,5-a]pyrimidine-3-carboxamide], the IC50 is 27.2 nM in test [1] and above 1000 nM at Human Jak2 kinase domain (setting [2]).
The matching figures for `C[C@H](CO)NC(=O)c1cnn2ccc(N3CCC[C@@H]3c3cncc(F)c3)nc12` [Example 115, 5-((R)-2-(5-fluoropyridin-3-yl)pyrrolidin-1-yl)-N-((R)-1-hydroxypropan-2-yl)pyrazolo[1,5-a]pyrimidine-3-carboxamide]: 15.3 nM and above 1000 nM.
As to `COCCOc1cc(F)cc([C@H]2CCCN2c2ccn3ncc(C(N)=O)c3n2)c1` [Example 78, (R)-5-(2-(3-fluoro-5-(2-methoxyethoxy)phenyl)pyrrolidin-1-yl)pyrazolo[1,5-a]pyrimidine-3-carboxamide], the IC50 is 34.9 nM in test [1] and above 1000 nM at Human Jak2 kinase domain (setting [2]).
The matching figures for `CC(C)(O)CNC(=O)c1cnn2ccc(N3CCC[C@@H]3c3cncc(F)c3)nc12` [Example 111, (R)-5-(2-(5-fluoropyridin-3-yl)pyrrolidin-1-yl)-N-(2-hydroxy-2-methylpropyl)pyrazolo[1,5-a]pyrimidine-3-carboxamide]: 37.8 nM and above 1000 nM.
Regarding `COc1ncc(F)cc1[C@H]1CCCN1c1ccn2ncc(C(N)=O)c2n1` [Example 82, (R)-5-(2-(5-fluoro-2-methoxypyridin-3-yl)pyrrolidin-1-yl)pyrazolo[1,5-a]pyrimidine-3-carboxamide], the 50% inhibitory concentration (IC50) in test [1] was 2.55 nM; on Human Jak2 kinase domain it was above 1000 nM.
For the compound `O=C(NC1CCC[C@@H]1O)c1cnn2ccc(N3CCCC3c3cncc(F)c3)nc12` (stereo partly drawn) [Example 120, 5-((R)-2-(5-fluoropyridin-3-yl)pyrrolidin-1-yl)-N-((trans)-2-hydroxycyclopentyl)pyrazolo[1,5-a]pyrimidine-3-carboxamide], the IC50 in test [1] is 22.8 nM; on Human Jak2 kinase domain (setting [2]), above 1000 nM.
For `O=C(NCCO)c1cnn2ccc(N3CCCC3c3cc(F)ccc3F)nc12` (stereo not shown) [Example 165, 5-(2-(2,5-difluorophenyl)pyrrolidin-1-yl)-N-(2-hydroxyethyl)pyrazolo[1,5-a]pyrimidine-3-carboxamide], the IC50 in test [1] is 1.1 nM; at Human Jak2 kinase domain (setting [2]) it was above 1000 nM.
`O=C(Nc1ccc(F)cn1)c1cnn2ccc(N3CCC[C@@H]3c3cncc(F)c3)nc12` [Example 95, (R)—N-(5-fluoropyridin-2-yl)-5-(2-(5-fluoropyridin-3-yl)pyrrolidin-1-yl)pyrazolo[1,5-a]pyrimidine-3-carboxamide]: the IC50 in test [1] was 5.4 nM; on Human Jak2 kinase domain (setting [2]), above 1000 nM.
The matching figures for `CN(C)C(=O)c1cnn2ccc(N3CCC[C@@H]3c3cc(F)ccc3F)nc12` [Example 27, (R)-5-(2-(2,5-difluorophenyl)pyrrolidin-1-yl)-N,N-dimethylpyrazolo[1,5-a]pyrimidine-3-carboxamide]: 214 nM and above 1000 nM.
The like results for `CC(C)(CF)NC(=O)c1cnn2ccc(N3CCC[C@@H]3c3cncc(F)c3)nc12` [Example 71, (R)—N-(1-fluoro-2-methylpropan-2-yl)-5-(2-(5-fluoropyridin-3-yl)pyrrolidin-1-yl)pyrazolo[1,5-a]pyrimidine-3-carboxamide] were, in that order, 8.65 nM and above 1000 nM.
With `Cc1ncc(F)cc1[C@H]1CCCN1c1ccn2ncc(C(=O)NCCO)c2n1` [Example 188, (R)-5-(2-(5-fluoro-2-methylpyridin-3-yl)pyrrolidin-1-yl)-N-(2-hydroxyethyl)pyrazolo[1,5-a]pyrimidine-3-carboxamide], the values for the IC50 (in test [1]; on Human Jak2 kinase domain (setting [2])) were 83 nM and above 1000 nM, respectively.
With `CONC(=O)c1cnn2ccc(N3CCC[C@@H]3c3cc(F)cnc3OC)nc12` [Example 83, (R)-5-(2-(5-fluoro-2-methoxypyridin-3-yl)pyrrolidin-1-yl)-N-methoxypyrazolo[1,5-a]pyrimidine-3-carboxamide], the 50% inhibitory concentration (IC50) in test [1] is 1.77 nM; on Human Jak2 kinase domain, above 1000 nM.
On to `CC(C)NC(=O)c1cnn2ccc(N3[C@H](CO)CC[C@@H]3c3cncc(F)c3)nc12` [Example 215, 5-((2R,5S)-2-(5-fluoropyridin-3-yl)-5-(hydroxymethyl)pyrrolidin-1-yl)-N-isopropylpyrazolo[1,5-a]pyrimidine-3-carboxamide], for which the IC50 in test [1] is 15.3 nM; on Human Jak2 kinase domain (setting [2]), above 1000 nM.
The matching figures for `CNC(=O)c1cnn2ccc(N3CCC[C@@H]3c3cc(F)ccc3F)nc12` [Example 10, (R)-5-(2-(2,5-difluorophenyl)pyrrolidin-1-yl)-N-methylpyrazolo[1,5-a]pyrimidine-3-carboxamide]: 1.05 nM and above 1000 nM.
The matching figures for `C[C@@H](CO)NC(=O)c1cnn2ccc(N3CCC[C@@H]3c3cncc(F)c3)nc12` [Example 116, 5-((R)-2-(5-fluoropyridin-3-yl)pyrrolidin-1-yl)-N-((S)-1-hydroxypropan-2-yl)pyrazolo[1,5-a]pyrimidine-3-carboxamide]: 26.2 nM and above 1000 nM.
The like results for `O=C(NCC(F)(F)F)c1cnn2ccc(N3CCC[C@@H]3c3cncc(F)c3)nc12` [Example 131, (R)-5-(2-(5-fluoropyridin-3-yl)pyrrolidin-1-yl)-N-(2,2,2-trifluoroethyl)pyrazolo[1,5-a]pyrimidine-3-carboxamide] were, in that order, 5 nM and above 1000 nM.
Regarding `O=C(NC[C@H](O)CO)c1cnn2ccc(N3CCC[C@@H]3c3cc(F)ccc3C(F)(F)F)nc12` [Example 62, N—((S)-2,3-dihydroxypropyl)-5-((R)-2-(5-fluoro-2-(trifluoromethyl)phenyl)pyrrolidin-1-yl)pyrazolo[1,5-a]pyrimidine-3-carboxamide], the 50% inhibitory concentration (IC50) was 2.53 nM in test [1] and above 1000 nM at Human Jak2 kinase domain (setting [2]).
